According to ChEMBL document CHEMBL3301546, “MMV Malaria Box yeast growth screening”:

Assays:
Format in all cases: functional
[1] = system: Saccharomyces cerevisiae; assay: (§1) MMV: Growth assays were conducted using the prototrophic S. cerevisiae strain JHY222. Each MMV compound (0.1 mM) was tested in rich media containing dextrose as a carbon source (Yeast Extract, Peptone, Dextrose; YPD). The growth rate in the presence of each MMV compound was calculated as follows: (i) the first 10 OD readings were averaged and subtracted from all OD readings of the corresponding curve to set the baseline of the growth curve to zero, and (ii) the area under the curve (AUC) was then calculated as the sum of all OD readings. […] A relative growth value was calculated as follows: AUC(DRUG) - AUC(DMSO)/AUC(DMSO); where AUC(DMSO) represents growth measured in a DMSO control well that was on the same microtiter plate of the drug-treated culture.
[2] = system: Saccharomyces cerevisiae; assay: as §1, with “minimal” for “rich”, “Nitrogen Base,” for “Extract, Peptone,”, “YNBD).” for “YPD).”
[3] = system: Saccharomyces cerevisiae; assay: as §1, with “minimal” for “rich”, “ethanol and glycerol” for “dextrose”, “as” for “as a”, “sources” for “source”, “Nitrogen Base, Ethanol, Glycerol; YNBEG).” for “Extract, Peptone, Dextrose; YPD).”

## Fc1ccc2[nH]c3c(NCCCN4CCOCC4)ncnc3c2c1
[1]
  Relative Growth: -0.0189
[2]
  Relative Growth: 0.0125
[3]
  Relative Growth: 0.0735

## c1ccc(CNc2nc(Nc3ccccc3)nc3ccccc23)cc1
[1]
  Relative Growth: -0.0158
[2]
  Relative Growth: -0.1327
[3]
  Relative Growth: -0.0499

## CC(C)CNC(=O)c1c(N)n(CCc2ccccc2F)c2nc3ccccc3nc12
[1]
  Relative Growth: 0.0072
[2]
  Relative Growth: 0.1192
[3]
  Relative Growth: -0.2111

## CCCOCc1cc(CN2CCN(c3cccc(Cl)c3)CC2)c(O)c2ncccc12
[1]
  Relative Growth: -0.0331
[2]
  Relative Growth: -0.0021
[3]
  Relative Growth: -0.1694

## OC1=C2C(=Nc3ccccc3SC2c2ccc(Br)cc2)c2ccccc21 (stereo not given)
[1]
  Relative Growth: -0.0041
[2]
  Relative Growth: 0.0198
[3]
  Relative Growth: 0.1502

## CCOc1cc2c(cc1OCC)C(c1cc(C)c(O)c(C)c1)NCC2.Cl (stereo not given)
[1]
  Relative Growth: -0.1843
[2]
  Relative Growth: -0.1636
[3]
  Relative Growth: -0.7495

## FC(F)(F)c1cccc(Nc2nc3ccccc3nc2Nc2cccc(C(F)(F)F)c2)c1
[1]
  Relative Growth: -0.0449
[2]
  Relative Growth: -0.0009
[3]
  Relative Growth: -0.1177

## CC(C)(C)CC(C)(C)NCC(O)COc1ccc2c(c1)CCC2.Cl (stereo not given)
[1]
  Relative Growth: -0.08
[2]
  Relative Growth: -0.0891
[3]
  Relative Growth: -0.1886

## Cc1cccc(-n2ncc3c(O)nc(-n4nc(C)cc4NC(=O)c4cc5ccccc5o4)nc32)c1
[1]
  Relative Growth: -0.0284
[2]
  Relative Growth: -0.2202
[3]
  Relative Growth: -0.0822

## CCCCCCC(O)(c1ccc(F)cc1)C(CN1CCOCC1)c1ccccc1.Cl (stereo not given)
[1]
  Relative Growth: -0.0019
[2]
  Relative Growth: -0.1565
[3]
  Relative Growth: -0.0435

## CCOC(=O)c1cnc2ccc(Cl)cc2c1NCCCN(C)C
[1]
  Relative Growth: 0.0203
[2]
  Relative Growth: 0.0022
[3]
  Relative Growth: -0.0264

## N=c1n(CCN2CCCCC2)c2ccccc2n1CC(=O)c1ccc(Cl)c(Cl)c1
[1]
  Relative Growth: -0.0413
[2]
  Relative Growth: 0.1082
[3]
  Relative Growth: 0.0494

## Cc1cc(N2CCCC2)nc(Nc2ccc(NC(=O)CCc3ccccc3)cc2)n1
[1]
  Relative Growth: -0.047
[2]
  Relative Growth: -0.0661
[3]
  Relative Growth: -0.093

## CN(C)c1ccc(C=Cc2nc(=O)c3ccccc3o2)cc1
[1]
  Relative Growth: -0.0054
[2]
  Relative Growth: -0.0045
[3]
  Relative Growth: 0.0299

## COc1ccc(-c2nonc2NC(=O)c2cccc(C)c2)cc1OC
[1]
  Relative Growth: -0.0571
[2]
  Relative Growth: 0.0614
[3]
  Relative Growth: -0.0764

## CN(C)CCCNc1c2ccccc2nc2ccccc12
[1]
  Relative Growth: 0.0036
[2]
  Relative Growth: -0.0065
[3]
  Relative Growth: 0.0887

## COC(=O)c1ccc(C2C3=C(O)CC(c4ccc(F)cc4)CC3=Nc3ccccc3N2C(=O)c2ccccc2)cc1 (stereo not given)
[1]
  Relative Growth: -0.0053
[2]
  Relative Growth: 0.2377
[3]
  Relative Growth: 0.1245

## Br.CCN(CC)S(=O)(=O)c1ccc(-c2csc(Nc3ccc(C)c(C)c3)n2)cc1
[1]
  Relative Growth: -0.1037
[2]
  Relative Growth: 0.0785
[3]
  Relative Growth: -0.6715

## COc1ccc(-c2nc3cc(Cc4ccc5[nH]c(-c6ccc(OC)cc6)nc5c4)ccc3[nH]2)cc1
[1]
  Relative Growth: -0.0264
[2]
  Relative Growth: 0.0862
[3]
  Relative Growth: 0.0241

## CCCCc1c(CCC)c(=N)c2ccccc2n1C.I
[1]
  Relative Growth: -0.0798
[2]
  Relative Growth: 0.0105
[3]
  Relative Growth: 0.0643

## Cc1ccc(C)c(Cn2c(N3CCC(C(=O)NCc4cccs4)CC3)nc3ccccc32)c1
[1]
  Relative Growth: -0.4893
[2]
  Relative Growth: -0.0285
[3]
  Relative Growth: -0.021

## CC(Oc1ccc(NC(=O)c2cccs2)cc1)C(=O)c1ccc(Cl)cc1 (stereo not given)
[1]
  Relative Growth: 0.0426
[2]
  Relative Growth: 0.1664
[3]
  Relative Growth: 0.0184

## Cc1cccc(N2C(=O)C3C(C2=O)C2(c4ccccc4)C(=O)C3(c3ccccc3)C(c3ccc4c(c3)OCO4)=C2c2ccc3c(c2)OCO3)c1 (stereo not given)
[1]
  Relative Growth: -0.0089
[2]
  Relative Growth: -0.0077
[3]
  Relative Growth: -0.1627

## CCOC(=O)c1ccc2nc(-c3ccccc3)cc(O)c2c1
[1]
  Relative Growth: -0.0952
[2]
  Relative Growth: 0.1214
[3]
  Relative Growth: 0.0616

## COc1ccc(C2N(C)c3ccccc3N2C)cc1
[1]
  Relative Growth: -0.0039
[2]
  Relative Growth: -0.0194
[3]
  Relative Growth: 0.0867

## CCOC(=O)c1cnc2c(C)cc(C)cc2c1Nc1ccc(OC)c(OC)c1
[1]
  Relative Growth: -0.1039
[2]
  Relative Growth: 0.0948
[3]
  Relative Growth: -0.222

## CN(C)CCNc1cc(-c2ccccc2)nc2ccccc12
[1]
  Relative Growth: -0.0237
[2]
  Relative Growth: 0.1058
[3]
  Relative Growth: 0.0694

## O=C(NC1CCCCC1)C(c1cccs1)N(CCc1ccccc1)C(=O)c1ccco1 (stereo not given)
[1]
  Relative Growth: -0.0109
[2]
  Relative Growth: -0.1735
[3]
  Relative Growth: -0.2518

## CN(C)c1ccc(-c2nc3cc(N)ccc3[nH]2)cc1
[1]
  Relative Growth: 0.2129
[2]
  Relative Growth: -0.0068
[3]
  Relative Growth: 0.1829

## CCOC(=O)c1cnc2c(C)cccc2c1Nc1ccc(C(C)=O)cc1
[1]
  Relative Growth: -0.0046
[2]
  Relative Growth: -0.0028
[3]
  Relative Growth: -0.0453

## COc1cc(C(=O)ON=C(N)Cc2cccc3ccccc23)cc(OC)c1OC
[1]
  Relative Growth: -0.2539
[2]
  Relative Growth: 0.2835
[3]
  Relative Growth: 0.1784

## CN1CCN(c2nc(Nc3ccc(O)cc3)nc3ccccc23)CC1.Cl
[1]
  Relative Growth: -0.0029
[2]
  Relative Growth: -0.0206
[3]
  Relative Growth: -0.0432

## OC(CNCC1CCCO1)Cn1c2ccc(Cl)cc2c2cc(Cl)ccc21 (stereo not given)
[1]
  Relative Growth: -0.0004
[2]
  Relative Growth: 0.0307
[3]
  Relative Growth: 0.0106

## Cl.Cn1c(=O)n(C)c2cc(CNCCNc3ccnc4cc(Cl)ccc34)ccc21
[1]
  Relative Growth: -0.0297
[2]
  Relative Growth: 0.301
[3]
  Relative Growth: 0.2785

## O=C(NCc1ccco1)C1CCN(S(=O)(=O)c2ccc(Cl)cc2)CC1
[1]
  Relative Growth: -0.0768
[2]
  Relative Growth: -0.224
[3]
  Relative Growth: -0.0245

## CN1c2ccccc2N(C)C1c1ccc2c(c1)OCO2
[1]
  Relative Growth: 0.0103
[2]
  Relative Growth: -0.0051
[3]
  Relative Growth: 0.1265

## COc1ccc(-c2nc(N3CCN(C(=O)C4CCCCC4)CC3)c3c4c(sc3n2)CCCC4)cc1
[1]
  Relative Growth: -0.0342
[2]
  Relative Growth: 0.0845
[3]
  Relative Growth: -0.067

## Cn1c(=O)c2cc(C(=O)NCCCN3CCCCCC3)sc2c2ccccc21
[1]
  Relative Growth: -0.0314
[2]
  Relative Growth: -0.1099
[3]
  Relative Growth: 0.0018

## COc1ccc(-c2cc(=O)oc3c4c(ccc23)OCN(Cc2ccc(F)cc2)C4)cc1
[1]
  Relative Growth: 0.0536
[2]
  Relative Growth: 0.0043
[3]
  Relative Growth: -0.013

## N=c1c2ccccc2nnn1-c1cccc(C(F)(F)F)c1
[1]
  Relative Growth: -0.0528
[2]
  Relative Growth: -0.1559
[3]
  Relative Growth: -0.1336

## Cc1ccc(CSCc2ccc(C(=O)NC3CC3)o2)cc1
[1]
  Relative Growth: 0.0613
[2]
  Relative Growth: -0.0643
[3]
  Relative Growth: -0.1982

## COc1ccccc1N1CCN(C(CNS(=O)(=O)c2ccc(Cl)cc2)c2cccnc2)CC1 (stereo not given)
[1]
  Relative Growth: -0.173
[2]
  Relative Growth: -0.1378
[3]
  Relative Growth: -0.6721

## O=C(NC1CCN(Cc2ccccc2)CC1)c1cc(-c2cccnc2)nc2ccc(Cl)cc12
[1]
  Relative Growth: -0.0203
[2]
  Relative Growth: 0.0617
[3]
  Relative Growth: 0.017

## CCCCC(O)(c1ccc(Cl)cc1)C(CN1CCOCC1)c1ccc(Cl)cc1.Cl (stereo not given)
[1]
  Relative Growth: 0.0402
[2]
  Relative Growth: -0.1088
[3]
  Relative Growth: -0.0844

## CCCCNc1nc(NC(C)(C)C)nc(NC(C)(C)C)n1
[1]
  Relative Growth: 0.0174
[2]
  Relative Growth: -0.0768
[3]
  Relative Growth: -0.1542

## Clc1ccc2c(N3CCCC3)ccnc2c1
[1]
  Relative Growth: -0.0453
[2]
  Relative Growth: 0.0172
[3]
  Relative Growth: -0.0954

## CC1CCN(Cc2ccc(NC(=O)c3cc4ccc5cccnc5c4[nH]3)cc2)CC1
[1]
  Relative Growth: -0.0895
[2]
  Relative Growth: 0.121
[3]
  Relative Growth: -0.318

## COc1cccc(C(=O)Nc2ccc(-c3nc4ccccc4[nH]3)cc2)c1
[1]
  Relative Growth: -0.0256
[2]
  Relative Growth: 0.0184
[3]
  Relative Growth: 0.0109

## CCCCCC(=O)N1c2ccccc2N=C2CC(c3ccc(OC)c(OC)c3)CC(O)=C2C1c1ccc(C(F)(F)F)cc1 (stereo not given)
[1]
  Relative Growth: -0.0291
[2]
  Relative Growth: 0.1507
[3]
  Relative Growth: 0.0121

## O=C(NCC(c1ccsc1)N1CCCCCC1)c1ccc(C(F)(F)F)cc1 (stereo not given)
[1]
  Relative Growth: -0.0232
[2]
  Relative Growth: 0.0719
[3]
  Relative Growth: 0.0335

## Cc1cc(C)cc(Nc2cc(C)nc3nc(C(F)(F)F)nn23)c1
[1]
  Relative Growth: -0.0343
[2]
  Relative Growth: 0.0866
[3]
  Relative Growth: -0.0322

## O=C(NC1CCCC1)c1ccc(N2CCC(NCc3cccc(C(F)(F)F)c3)CC2)cc1
[1]
  Relative Growth: 0.09
[2]
  Relative Growth: -0.054
[3]
  Relative Growth: -0.7428

## CCOc1ccc(Nc2c3ccccc3nc3ccccc23)cc1.Cl
[1]
  Relative Growth: -0.0047
[2]
  Relative Growth: 0.0198
[3]
  Relative Growth: 0.0301

## O=C(Nc1ccccc1O)c1ccc(-c2ccc(Cl)cc2Cl)o1
[1]
  Relative Growth: 0.0802
[2]
  Relative Growth: 0.0136
[3]
  Relative Growth: -0.098

## Cc1ccc(Nc2nc(-c3ccccn3)cs2)cc1
[1]
  Relative Growth: 0.0194
[2]
  Relative Growth: 0.0898
[3]
  Relative Growth: 0.1504
